Results taken from US9018208B2, “Heterocycles as potassium channel modulators” (Icagen Inc., priority 2007, dated 2015).
pEC50: −log10 of the molar value.

System: SH-SY5Y M-currents (KCNQ2, KCNQ3 and KCNQ5)
Assay: SH-SY5Y native cell line FLIPR assay (voltage-sensitive dye DiBAC)
Format: cell-based, mouse neuroblastoma, rat glioma hybrid cell line
Conditions: FLIPR assay, SH-SY5Y native cell line; Table 2; read-out: SH-SY5Y EC50
Summary of the method: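 Response is peak DiBAC fluorescence change, normalised to the maximum from a positive control agent, sampled every 30 s over 25 min. Before compound addition, SH-SY5Y cells differentiated with PGE1 plus isomethylbutylxanthine were dye-loaded for 1 h in EBSS with […] DiBAC.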

| pEC50 | SMILES |
| --- | --- |
| > 6.30 | O=C(Cc1ccccc1)Nc1nc2ccc(C(F)(F)F)cn2c1-c1ccc(F)cc1 [Compound 119, N-(3-(4-fluorophenyl)-6-(trifluoromethyl)imidazo[1,2-a]pyridin-2-yl)-2-phenylacetamide] |
| > 6.30 | CC(C)(C)CC(=O)Nc1nc2ccc(C(F)(F)F)cn2c1-c1ccc(F)cc1 [Compound 120, N-(3-(4-fluorophenyl)-6-(trifluoromethyl)imidazo[1,2-a]pyridin-2-yl)-3,3-dimethylbutanamide] |
| > 6.30 | O=C(Cc1ccc(F)cc1)Nc1nc2ccc(C(F)(F)F)cn2c1-c1ccc(F)cc1 [Compound 121, 2-(4-fluorophenyl)-N-(3-(4-fluorophenyl)-6-(trifluoromethyl)imidazo[1,2-a]pyridin-2-yl)acetamide] |
| 5.52 to 6.30 | O=C(Cc1ccc(F)cc1)Nc1nc2cc(C(F)(F)F)ccn2c1-c1ccc(F)cc1F [Compound 122, N-(3-(2,4-difluorophenyl)-7-(trifluoromethyl)imidazo[1,2-a]pyridin-2-yl)-2-(4-fluorophenyl)acetamide] |
| 5.52 to 6.30 | CC(C)(C)CC(=O)Nc1nc2cc(C(F)(F)F)ccn2c1-c1ccc(F)cc1F [Compound 123, N-(3-(2,4-difluorophenyl)-7-(trifluoromethyl)imidazo[1,2-a]pyridin-2-yl)-3,3-dimethylbutanamide] |
| 5.52 to 6.30 | O=C(Cc1ccccc1)Nc1nc2cc(C(F)(F)F)ccn2c1-c1ccc(F)cc1F [Compound 124, N-(3-(2,4-difluorophenyl)-7-(trifluoromethyl)imidazo[1,2-a]pyridin-2-yl)-2-phenyl acetamide] |
| 5.52 to 6.30 | O=C(CC1CCCC1)Nc1nc2cc(C(F)(F)F)ccn2c1-c1ccc(F)cc1F [Compound 125, 2-cyclopentyl-N-(3-(2,4-difluorophenyl)-7-(trifluoromethyl)imidazo[1,2-a]pyridin-2-yl)acetamide] |
| 5.52 to 6.30 | O=C(Cc1ccc(F)cc1)Nc1nc2ccc(F)cn2c1-c1ccc(C(F)(F)F)cc1 [Compound 126, N-(6-fluoro-3-(4-(trifluoromethyl)phenyl)imidazo[1,2-a]pyridin-2-yl)-2-(4-fluorophenyl)acetamide] |
| > 6.30 | O=C(Cc1ccccc1)Nc1nc2ccc(F)cn2c1-c1ccc(C(F)(F)F)cc1 [Compound 127, N-(6-fluoro-3-(4-(trifluoromethyl)phenyl)imidazo[1,2-a]pyridin-2-yl)-2-phenylacetamide] |
| 5.00 to 5.52 | O=C(CC1CC1)Nc1nc2ccc(F)cn2c1-c1ccc(F)cc1 [Compound 129, 2-cyclopropyl-N-(6-fluoro-3-(4-fluorophenyl)imidazo[1,2-a]pyridin-2-yl)acetamide] |
| > 6.30 | CC(C)(C)CC(=O)Nc1nc2ccc(Cl)cn2c1-c1ccc(F)cc1 [Compound 130, N-(6-chloro-3-(4-fluorophenyl)imidazo[1,2-a]pyridin-2-yl)-3,3-dimethylbutanamide] |
| > 6.30 | O=C(Cc1ccc(F)cc1)Nc1nc2ccc(Cl)cn2c1-c1ccc(F)cc1 [Compound 131, N-(6-chloro-3-(4-fluorophenyl)imidazo[1,2-a]pyridin-2-yl)-2-(4-fluorophenyl)acetamide] |
| 5.52 to 6.30 | COc1ccc(CC(=O)Nc2nc3ccc(F)cn3c2-c2ccc(F)cc2)cc1 [Compound 132, N-(6-fluoro-3-(4-fluorophenyl)imidazo[1,2-a]pyridin-2-yl)-2-(4-methoxyphenyl)acetamide] |
| 5.52 to 6.30 | CC(C)CC(=O)Nc1nc2ccc(F)cn2c1-c1ccc(F)cc1 [Compound 133, N-(6-fluoro-3-(4-fluorophenyl)imidazo[1,2-a]pyridin-2-yl)-3-methylbutanamide] |
| 5.52 to 6.30 | O=C(CCc1ccccc1)Nc1nc2ccc(F)cn2c1-c1ccc(F)cc1 [Compound 134, N-(6-fluoro-3-(4-fluorophenyl)imidazo[1,2-a]pyridin-2-yl)-3-phenylpropanamide] |
| 5.52 to 6.30 | O=C(Cc1ccc(C(F)(F)F)cc1)Nc1nc2ccc(F)cn2c1-c1ccc(F)cc1 [Compound 135, N-(6-fluoro-3-(4-fluorophenyl)imidazo[1,2-a]pyridin-2-yl)-2-(4-(trifluoromethyl)phenyl)acetamide] |
| 5.52 to 6.30 | O=C(Cc1ccc(F)cc1F)Nc1nc2ccc(F)cn2c1-c1ccc(F)cc1 [Compound 136, 2-(2,4-difluorophenyl)-N-(6-fluoro-3-(4-fluorophenyl)imidazo[1,2-a]pyridin-2-yl)acetamide] |
| 5.52 to 6.30 | N#Cc1ccc(CC(=O)Nc2nc3ccc(F)cn3c2-c2ccc(F)cc2)cc1 [Compound 137, 2-(4-cyanophenyl)-N-(6-fluoro-3-(4-fluorophenyl)imidazo[1,2-a]pyridin-2-yl)acetamide] |
| > 6.30 | O=C(CC1CC2CCC1C2)Nc1nc2ccc(F)cn2c1-c1ccc(F)cc1 (stereo not shown) [Compound 138, 2-(bicyclo[2.2.1]heptan-2-yl)-N-(6-fluoro-3-(4-fluorophenyl)imidazo[1,2-a]pyridin-2-yl)acetamide] |
| > 6.30 | CC(CC(=O)Nc1nc2ccc(F)cn2c1-c1ccc(F)cc1)CC(C)(C)C (stereo not shown) [Compound 139, N-(6-fluoro-3-(4-fluorophenyl)imidazo[1,2-a]pyridin-2-yl)-3,5,5-trimethylhexanamide] |

| pEC50 | SMILES |
| --- | --- |
| 5.00 to 5.52 | O=C(Cc1ccc(F)cc1Cl)Nc1nc2ccc(F)cn2c1-c1ccc(F)cc1 [Compound 140, 2-(2-chloro-4-fluorophenyl)-N-(6-fluoro-3-(4-fluorophenyl)imidazo[1,2-a]pyridin-2-yl)acetamide] |
| 5.00 to 5.52 | O=C(Cc1c(F)cccc1Cl)Nc1nc2ccc(F)cn2c1-c1ccc(F)cc1 [Compound 141, 2-(2-chloro-6-fluorophenyl)-N-(6-fluoro-3-(4-fluorophenyl)imidazo[1,2-a]pyridin-2-yl)acetamide] |
| > 6.30 | Cc1ccc(CC(=O)Nc2nc3ccc(F)cn3c2-c2ccc(F)cc2)cc1 [Compound 143, N-(6-fluoro-3-(4-fluorophenyl)imidazo[1,2-a]pyridin-2-yl)-2-p-tolylacetamide] |
| 5.52 to 6.30 | CC(CC(=O)Nc1nc2ccc(F)cn2c1-c1ccc(F)cc1)C(F)(F)F (stereo not shown) [Compound 144, 4,4,4-trifluoro-N-(6-fluoro-3-(4-fluorophenyl)imidazo[1,2-a]pyridin-2-yl)-3-methylbutanamide] |
| 5.52 to 6.30 | O=C(Cc1ccc(Cl)cc1)Nc1nc2ccc(F)cn2c1-c1ccc(F)cc1 [Compound 145, 2-(4-chlorophenyl)-N-(6-fluoro-3-(4-fluorophenyl)imidazo[1,2-a]pyridin-2-yl)acetamide] |
| > 6.30 | O=C(Nc1nc2ccc(F)cn2c1-c1ccc(F)cc1)OCc1ccccc1 [Compound 146, benzyl 6-fluoro-3-(4-fluorophenyl)imidazo[1,2-a]pyridin-2-ylcarbamate] |
| 5.52 to 6.30 | CCC(C)CC(=O)Nc1nc2ccc(F)cn2c1-c1ccc(F)cc1 (stereo not shown) [Compound 147, N-(6-fluoro-3-(4-fluorophenyl)imidazo[1,2-a]pyridin-2-yl)-3-methylpentanamide] |
| > 6.30 | O=C(Cc1ccc(F)cc1)Nc1nc2ccc(F)cn2c1-c1cccc(Cl)c1 [Compound 148, N-(3-(3-chlorophenyl)-6-fluoroimidazo[1,2-a]pyridin-2-yl)-2-(4-fluorophenyl)acetamide] |
| > 6.30 | CC(C)(C)CC(=O)Nc1nc2ccc(F)cn2c1-c1cccc(Cl)c1 [Compound 149, N-(3-(3-chlorophenyl)-6-fluoroimidazo[1,2-a]pyridin-2-yl)-3,3-dimethylbutanamide] |
| > 6.30 | CC(C)(C)CC(=O)Nc1nc2ccc(F)cn2c1-c1ccc(Cl)cc1 [Compound 150, N-(3-(4-chlorophenyl)-6-fluoroimidazo[1,2-a]pyridin-2-yl)-3,3-dimethylbutanamide] |
| 5.52 to 6.30 | C#CCCCC(=O)Nc1nc2ccc(F)cn2c1-c1ccc(F)cc1 [Compound 151, N-(6-fluoro-3-(4-fluorophenyl)imidazo[1,2-a]pyridin-2-yl)hex-5-ynamide] |
| > 6.30 | CC(C)(C)CC(=O)Nc1nc2ccc(Br)cn2c1-c1ccc(F)cc1 [Compound 152, N-(6-bromo-3-(4-fluorophenyl)imidazo[1,2-a]pyridin-2-yl)-3,3-dimethyl butanamide] |
| > 6.30 | O=C(Cc1ccc(F)cc1)Nc1nc2ccc(F)cn2c1-c1ccc(OC(F)(F)F)cc1 [Compound 154, N-(6-fluoro-3-(4-(trifluoromethoxy)phenyl)imidazo[1,2-a]pyridin-2-yl)-2-(4-fluorophenyl)acetamide] |
| > 6.30 | O=C(Cc1ccccc1)Nc1nc2ccc(F)cn2c1-c1cccc(Cl)c1 [Compound 155, N-(3-(3-chlorophenyl)-6-fluoroimidazo[1,2-a]pyridin-2-yl)-2-phenylacetamide] |
| > 6.30 | O=C(CC1CCCC1)Nc1nc2ccc(F)cn2c1-c1ccc(C(F)(F)F)cc1 [Compound 156, 2-cyclopentyl-N-(6-fluoro-3-(4-(trifluoromethyl)phenyl)imidazo[1,2-a]pyridin-2-yl)acetamide] |
| > 6.30 | O=C(CC1CCCCC1)Nc1nc2ccc(F)cn2c1-c1ccc(C(F)(F)F)cc1 [Compound 157, 2-cyclohexyl-N-(6-fluoro-3-(4-(trifluoromethyl)phenyl)imidazo[1,2-a]pyridin-2-yl)acetamide] |
| 5.52 to 6.30 | CC(C)(C)CC(=O)Nc1nc2ccc(F)cn2c1-c1ccccc1Cl [Compound 158, N-(3-(2-chlorophenyl)-6-fluoroimidazo[1,2-a]pyridin-2-yl)-3,3-dimethylbutanamide] |
| 5.52 to 6.30 | CC(C)(C)CC(=O)Nc1nc2ccc(C#N)cn2c1-c1ccc(F)cc1 [Compound 159, N-(6-cyano-3-(4-fluorophenyl)imidazo[1,2-a]pyridin-2-yl)-3,3-dimethylbutanamide] |
| 5.52 to 6.30 | N#Cc1ccc2nc(NC(=O)Cc3ccccc3)c(-c3ccc(F)cc3)n2c1 [Compound 160, N-(6-cyano-3-(4-fluorophenyl)imidazo[1,2-a]pyridin-2-yl)-2-phenylacetamide] |
| 5.00 to 5.52 | O=C(Nc1nc2ccc(F)cn2c1-c1ccc(C(F)(F)F)cc1)OCc1ccccc1 [Compound 161, benzyl 6-fluoro-3-(4-(trifluoromethyl)phenyl)imidazo[1,2-a]pyridin-2-ylcarbamate] |
